Source: patent publication US8153631B2, “Triazole compounds and uses related thereto” (Amgen Inc., priority 2003, dated 2012)
Structures can show the parent of a compound that is named as a salt.

Molecular target: T1, human HSD1 (recombinant HSD1) (Homo sapiens, UniProt P28845)
T1 construct: made in house
Assay: In vitro HSD1 activity inhibitory action, SPA of cortisone to cortisol conversion
Type: biochemical
Conditions: recombinant human HSD1 0.1 μg/ml, 500 μM NADPH, 16 nM 3H cortisone, room temperature 90 min, read-out: hHSD1 IC50
Description: In Vitro HSD1 (Hydroxysteroid Dehydrogenase 1) Activity Inhibitory Action
The HSD1 inhibitory activity was examined by quantitative determination by an SPA (scintillation proximity assay) system of the suppressive action on the conversion from cortisone to cortisol using human HSD1 (hereinafter recombinant HSD1) expressed using a baculo-virus system as an enzyme source. For the reaction, a reagent was added to a 96 well plate (96 well Opti-plates™-96 (Packard)) to the following final concentration and a volume of 100 μl was reacted at room temperature for 90 min. The reaction solution used was 0.1 μg/ml recombinant HSD1, 500 μM NADPH, 16 nM ^3H cortisone (Amersham Biosciences, 1.78 Tbq/mol) dissolved in 0.1% BSA (Sigma)-containing PBS and the test drug was 2 μl of a compound solution (dissolved in DMSO). After 90 min, the reaction was stopped by adding PBS (40 μl, containing 0.1% BSA (Sigma)) containing 0.08 μg of anti-cortisol mouse monoclonal antibody (East Coast Biologics), 365 μg SPA PVT mouse antibody-binding beads (Amersham Biosciences) and 175 μM carbenoxolone (Sigma) to the reaction solution. After the completion of the reaction, the plate was incubated overnight at room temperature and the radioactivity was measured by Topcount (Packard). For control, the value (0% inhibition) of the well containing 2 μl of DMSO instead of the test drug was used, and for positive control, the value (100% inhibition) of the well containing carbenoxolone instead of the test drug at the final concentration of 50 μM was used. The inhibition (%) of the test drug was calculated by ((value of control−value of test drug)/(value of control−value of positive control))×100 (%). The IC50 value was analyzed using a computer-based curve fitting soft.

T1 sequence (P28845 whole entry): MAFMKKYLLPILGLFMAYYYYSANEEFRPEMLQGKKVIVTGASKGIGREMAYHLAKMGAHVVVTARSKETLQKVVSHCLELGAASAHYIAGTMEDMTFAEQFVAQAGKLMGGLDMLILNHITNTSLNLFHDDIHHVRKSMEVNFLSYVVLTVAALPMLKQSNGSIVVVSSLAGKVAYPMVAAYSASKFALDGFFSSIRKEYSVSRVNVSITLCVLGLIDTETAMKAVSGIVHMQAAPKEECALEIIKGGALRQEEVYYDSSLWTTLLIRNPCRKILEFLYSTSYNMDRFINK

Compound | IC50 [nM]
Cn1c(C2CCN(c3c(Cl)cncc3Cl)CC2)nnc1C1(c2ccc(Cl)cc2)CC1 [Ex. 1-1, 3′,5′-dichloro-4-(5-(1-(4-chlorophenyl)cyclopropyl)-4-methyl-4H-[1,2,4]triazol-3-yl)-3,4,5,6-tetrahydro-2H-[1,4′]bipyridyl hydrochloride] | 10 to 1000
Cn1c(C2CCN(c3ncccc3Cl)CC2)nnc1C1(c2ccccc2)CCCC1 [Ex. 1-2] | < 10
CC(=O)N1CCC(c2nnc(C3(c4ccccc4)CC3)n2C)CC1 [Ex. 1-4] | 10 to 1000
OCCn1c(C2CCN(c3c(Cl)cncc3Cl)CC2)nnc1C1(c2ccccc2)CC1 [Ex. 1-5] | < 10
NCCn1c(C2CCN(c3c(Cl)cncc3Cl)CC2)nnc1C1(c2ccccc2)CC1 [Ex. 1-6] | 10 to 1000
CC(=O)NCCn1c(C2CCN(c3c(Cl)cncc3Cl)CC2)nnc1C1(c2ccccc2)CC1 [Ex. 1-7] | 10 to 1000
COC(=O)CCn1c(C2CCN(c3c(Cl)cncc3Cl)CC2)nnc1C1(c2ccccc2)CC1 [Ex. 1-8] | < 10
CNC(=O)CCn1c(C2CCN(c3c(Cl)cncc3Cl)CC2)nnc1C1(c2ccccc2)CC1 [Ex. 1-10] | 10 to 1000
Cn1c(C2(c3ccccc3)CC2)nnc1[C@H]1CC[C@H](Oc2ccc(Cl)cc2Cl)CC1 [Ex. 1-11] | 10 to 1000
Cn1c(C2CCN(Cc3ccc(Cl)cc3Cl)CC2)nnc1C1(c2ccccc2)CC1 [Ex. 1-12] | 10 to 1000
Cn1c(C2CCN(c3c(Cl)cncc3Cl)CC2)nnc1C1(c2ccccc2)CCCC1 [Ex. 1-13] | < 10
Cn1c(C2CCN(c3ncccc3Cl)CC2)nnc1C1(c2ccccc2)CC1 [Ex. 1-14] | < 10
Cn1c(C2CCN(c3c(Cl)cncc3Cl)CC2)nnc1C1(c2ccccc2)CC1 [Ex. 1-15] | < 10
Cn1c(C2CCN(c3c(Cl)cncc3Cl)CC2)nnc1C1(c2ccccc2)CCNCC1 [Ex. 1-16] | 10 to 1000
Cn1c(-c2ccc(Cl)cc2Cl)nnc1C1(c2ccccc2)CC1 [Ex. 1-18] | < 10
Cn1c(-c2ccc([N+](=O)[O-])cc2Cl)nnc1C1(c2ccccc2)CC1 [Ex. 1-20] | < 10
CC(=O)Nc1ccc(-c2nnc(C3(c4ccccc4)CC3)n2C)c(Cl)c1 [Ex. 1-21] | < 10

Compound | IC50 [nM]
Cn1c(-c2ccc(NS(C)(=O)=O)cc2Cl)nnc1C1(c2ccccc2)CC1 [Ex. 1-22] | < 10
Cn1c(-c2ccc(NC(=O)CO)cc2Cl)nnc1C1(c2ccccc2)CC1 [Ex. 1-23] | < 10
COCC(=O)Nc1ccc(-c2nnc(C3(c4ccccc4)CC3)n2C)c(Cl)c1 [Ex. 1-24] | < 10
CN(C)CC(=O)Nc1ccc(-c2nnc(C3(c4ccccc4)CC3)n2C)c(Cl)c1 [Ex. 1-25] | < 10
Cn1c(-c2ccc(N)cc2Cl)nnc1C1(c2ccccc2)CC1 [Ex. 1-26] | < 10
Cn1c(-c2ccc(N3CCCC3=O)cc2Cl)nnc1C1(c2ccccc2)CC1 [Ex. 1-27] | 10 to 1000
CCCC(=O)Nc1ccc(-c2nnc(C3(c4ccccc4)CC3)n2C)c(Cl)c1 [Ex. 1-28] | < 10
CC(C)C(=O)Nc1ccc(-c2nnc(C3(c4ccccc4)CC3)n2C)c(Cl)c1 [Ex. 1-29] | < 10
Cn1c(-c2ccc(NC(=O)N3CCOCC3)cc2Cl)nnc1C1(c2ccccc2)CC1 [Ex. 1-30] | < 10
Cn1c(-c2ccc(NC(=O)CN3CCOCC3)cc2Cl)nnc1C1(c2ccccc2)CC1 [Ex. 1-31] | < 10
Cn1c(-c2ccc(NC3CCN(C(=O)OC(C)(C)C)CC3)cc2Cl)nnc1C1(c2ccccc2)CC1 [Ex. 1-32] | < 10
CN(C)C(=O)Nc1ccc(-c2nnc(C3(c4ccccc4)CC3)n2C)c(Cl)c1 [Ex. 1-33] | 10 to 1000
Cn1c(-c2ccc(NS(N)(=O)=O)cc2Cl)nnc1C1(c2ccccc2)CC1 [Ex. 1-34] | < 10
Cn1c(-c2ccc(NC(N)=O)cc2Cl)nnc1C1(c2ccccc2)CC1 [Ex. 1-35] | < 10
Cn1c(-c2ccc(N3CCOC3=O)cc2Cl)nnc1C1(c2ccccc2)CC1 [Ex. 1-36] | < 10
CCOC(=O)Nc1ccc(-c2nnc(C3(c4ccccc4)CC3)n2C)c(Cl)c1 [Ex. 1-38] | < 10
